Assay type in all cases: in vivo
Holding throughout (settings): applied at 125 g/ha, evaluated after 13 days

The test system of experiment [1] is Ipomoea hederacea (IPOHE). As to the kind of experiment: Post-emergence herbicidal glasshouse test (Table B1). Here is the method:
(§1) Seeds of a variety of test species are sown in standard soil in pots (Lolium perenne (LOLPE), Amaranthus retoflexus (AMARE), Abutilon theophrasti (ABUTH), Setaria faberi (SETFA), Echinochloa crus-galh (ECHCG), Ipomoea hederacea (IPOHE)). After cultivation for one day (pre-emergence) or after 8 days cultivation (post-emergence) under controlled conditions in a glasshouse (at 24/16° C., day/night; 14 hours light; 65% humidity), the plants are sprayed with an aqueous spray solution derived from the formulation of the technical active ingredient in acetone/water (50:50) solution containing 0.5% Tween 20 (polyoxyethelyene sorbitan monolaurate, CAS RN 9005-64-5). Compounds are applied at 500 g/h unless otherwise indicated. The test plants are then grown in a glasshouse under controlled conditions in a glasshouse (at 24/16° C., day/night; 14 hours light; 65% humidity) and watered twice daily. After 13 days for pre and post-emergence, the test is evaluated for the percentage damage caused to the plant. The biological activities are shown in the following table on a five-point scale (5=80-100%; 4=60-79%; 3=40-59%; 2=20-39%; 1=0-19%).

Experiment [2] relates to Amaranthus retoflexus (AMARE). The experiment is described as above. Here is the method: as §1
Experiment [3] has as its system Echinochloa crus-galh (ECHCG). The description is as above. Here is the method:
as §1

The subject of experiment [4] is Setaria faberi (SETFA). The experiment is described as above. Here is the method: as §1
Experiment [5] has as its system Ipomoea hederacea (IPOHE). As to the kind of experiment: Pre-emergence herbicidal glasshouse test (Table B1). On the procedure: as §1
Experiment [6] concerns Amaranthus retoflexus (AMARE). The description is as above. On the procedure: as §1
For experiment [7], the system named is Abutilon theophrasti (ABUTH). Described as above. On the procedure:
as §1

Experiment [8] deals with Echinochloa crus-galh (ECHCG). Described as above. Here is the method: as §1
Experiment [9] relates to Setaria faberi (SETFA). Described as above. On the procedure:
as §1

Take `CCn1nnnc1NC(=O)c1ccc(OC(F)(F)F)c(NC(=O)COC(C)C)c1Cl` [Compound 1.072]: the “POST Application IPOHE, percentage damage on five-point scale” value in experiment [1] is 4 (4=60-79%). Besides, the “POST Application AMARE, percentage damage on five-point scale” value in experiment [2] is recorded as 4 (4=60-79%). In addition, the “POST Application ECHCG, percentage damage on five-point scale” value in [3] was 5 (5=80-100%). In experiment [4], the “POST Application SETFA, percentage damage on five-point scale” value is recorded as 5 (5=80-100%). Also, in experiment [5], the “PRE Application IPOHE, percentage damage on five-point scale” value (from here on “PRE Application IPOHE, percentage damage”) is 5 (5=80-100%). In addition, in [6], the “PRE Application AMARE, percentage damage on five-point scale” value (shortened to “PRE Application AMARE, percentage damage”) is listed as 5 (5=80-100%). For the same compound, the “PRE Application ABUTH, percentage damage on five-point scale” value (“PRE Application ABUTH, percentage damage” below) in experiment [7] is listed as 5 (5=80-100%). For the same compound, the “PRE Application ECHCG, percentage damage on five-point scale” value (from here on “PRE Application ECHCG, percentage damage”) in experiment [8] was 5 (5=80-100%). Besides, the “PRE Application SETFA, percentage damage on five-point scale” value (shortened to “PRE Application SETFA, percentage damage”) in experiment [9] is recorded as 4 (4=60-79%).

Consider `CCOC(C)C(=O)Nc1c(OC(F)(F)F)ccc(C(=O)Nc2nnnn2CC)c1Cl` (stereo not drawn) [Compound 1.073], for which the “POST Application IPOHE, percentage damage on five-point scale” value in experiment [1] was 4 (4=60-79%). For the same compound, the “POST Application AMARE, percentage damage on five-point scale” value in experiment [2] is reported as 5 (5=80-100%). The “POST Application ECHCG, percentage damage on five-point scale” value in [3] is recorded as 5 (5=80-100%). Moreover, the “POST Application SETFA, percentage damage on five-point scale” value in experiment [4] is given as 5 (5=80-100%). In addition, in experiment [5], the “PRE Application IPOHE, percentage damage” value was 5 (5=80-100%). The “PRE Application AMARE, percentage damage” value in experiment [6] is reported as 5 (5=80-100%). Also, the “PRE Application ABUTH, percentage damage” value in [7] is 5 (5=80-100%). The “PRE Application ECHCG, percentage damage” value in experiment [8] was 5 (5=80-100%). The “PRE Application SETFA, percentage damage” value in [9] was 5 (5=80-100%).

Turning to `CCOCC(=O)Nc1c(OC(F)(F)F)ccc(C(=O)Nc2nnnn2CC)c1Cl` [Compound 1.074], the “POST Application IPOHE, percentage damage on five-point scale” value in experiment [1] is recorded as 5 (5=80-100%). The “POST Application AMARE, percentage damage on five-point scale” value in [2] is given as 5 (5=80-100%). Moreover, the “POST Application ECHCG, percentage damage on five-point scale” value in [3] is recorded as 5 (5=80-100%). Besides, in [4], the “POST Application SETFA, percentage damage on five-point scale” value is reported as 5 (5=80-100%). Moreover, the “PRE Application IPOHE, percentage damage” value in experiment [5] is reported as 5 (5=80-100%). For the same compound, the “PRE Application AMARE, percentage damage” value in [6] is reported as 5 (5=80-100%). For the same compound, the “PRE Application ABUTH, percentage damage” value in experiment [7] was 5 (5=80-100%). The “PRE Application ECHCG, percentage damage” value in [8] is 4 (4=60-79%). Further, the “PRE Application SETFA, percentage damage” value in experiment [9] is reported as 4 (4=60-79%).

With `CCn1nnnc1NC(=O)c1ccc(OC(F)(F)F)c(NC(=O)C2(C)CC2)c1Cl` [Compound 1.075], the “POST Application IPOHE, percentage damage on five-point scale” value in [1] is on record as 4 (4=60-79%). Also, the “POST Application AMARE, percentage damage on five-point scale” value in experiment [2] is 4 (4=60-79%). The “POST Application ECHCG, percentage damage on five-point scale” value in [3] is 4 (4=60-79%). Further, the “POST Application SETFA, percentage damage on five-point scale” value in [4] is listed as 5 (5=80-100%). The “PRE Application IPOHE, percentage damage” value in experiment [5] is reported as 5 (5=80-100%). Besides, the “PRE Application AMARE, percentage damage” value in [6] was 5 (5=80-100%). Further, the “PRE Application ABUTH, percentage damage” value in experiment [7] is 5 (5=80-100%). Further, the “PRE Application ECHCG, percentage damage” value in [8] is reported as 5 (5=80-100%). In experiment [9], the “PRE Application SETFA, percentage damage” value is on record as 5 (5=80-100%).

With `CCC(C)C(=O)Nc1c(OC(F)(F)F)ccc(C(=O)Nc2nnnn2CC)c1Cl` (stereo not drawn) [Compound 1.076], the “POST Application IPOHE, percentage damage on five-point scale” value in [1] is reported as 4 (4=60-79%). Moreover, the “POST Application AMARE, percentage damage on five-point scale” value in [2] was 4 (4=60-79%). Moreover, the “POST Application ECHCG, percentage damage on five-point scale” value in experiment [3] is recorded as 5 (5=80-100%). Besides, the “POST Application SETFA, percentage damage on five-point scale” value in [4] was 4 (4=60-79%). For the same compound, the “PRE Application IPOHE, percentage damage” value in experiment [5] is reported as 5 (5=80-100%). The “PRE Application AMARE, percentage damage” value in experiment [6] is listed as 5 (5=80-100%). Also, the “PRE Application ABUTH, percentage damage” value in [7] is recorded as 5 (5=80-100%). Also, the “PRE Application ECHCG, percentage damage” value in [8] is recorded as 5 (5=80-100%). For the same compound, in [9], the “PRE Application SETFA, percentage damage” value was 5 (5=80-100%).

The values are drawn from US20230219904A1 (SYNGENTA CROP PROTECTION AG, priority 2020, published 2023).
